# From patent publication US12036291B2, “Probes for imaging huntingtin protein” (CHDI Foundation, Inc., priority 2014, dated 2024)
# Test system: NFT in sections of AD brain tissue
# Experiment: not given
# Details: in vitro autoradiography ([125I]SBIM-3) and fluorescent staining (SBIM-3); cited from earlier work
row,Compound,binding to NFT in sections of AD brain tissue
1,"CN(C)c1ccc(/C=C/c2nc3ccc(I)cc3[nH]2)cc1 [SBIM-3, 4-[(E)-2-(6-iodo-1H-benzimidazol-2-yl)ethenyl]-N,N-di methyl aniline]",bound NFT in sections of AD brain tissue

# Molecular target: T1, Q46 protein aggregates (Homo sapiens, UniProt P42858)
# T1 construct: fused on or other part: GST at the N-terminus, cut off with thrombin before aggregation
# T1 sequence (P42858 with tags, fused parts or gaps with the stated changes, form open): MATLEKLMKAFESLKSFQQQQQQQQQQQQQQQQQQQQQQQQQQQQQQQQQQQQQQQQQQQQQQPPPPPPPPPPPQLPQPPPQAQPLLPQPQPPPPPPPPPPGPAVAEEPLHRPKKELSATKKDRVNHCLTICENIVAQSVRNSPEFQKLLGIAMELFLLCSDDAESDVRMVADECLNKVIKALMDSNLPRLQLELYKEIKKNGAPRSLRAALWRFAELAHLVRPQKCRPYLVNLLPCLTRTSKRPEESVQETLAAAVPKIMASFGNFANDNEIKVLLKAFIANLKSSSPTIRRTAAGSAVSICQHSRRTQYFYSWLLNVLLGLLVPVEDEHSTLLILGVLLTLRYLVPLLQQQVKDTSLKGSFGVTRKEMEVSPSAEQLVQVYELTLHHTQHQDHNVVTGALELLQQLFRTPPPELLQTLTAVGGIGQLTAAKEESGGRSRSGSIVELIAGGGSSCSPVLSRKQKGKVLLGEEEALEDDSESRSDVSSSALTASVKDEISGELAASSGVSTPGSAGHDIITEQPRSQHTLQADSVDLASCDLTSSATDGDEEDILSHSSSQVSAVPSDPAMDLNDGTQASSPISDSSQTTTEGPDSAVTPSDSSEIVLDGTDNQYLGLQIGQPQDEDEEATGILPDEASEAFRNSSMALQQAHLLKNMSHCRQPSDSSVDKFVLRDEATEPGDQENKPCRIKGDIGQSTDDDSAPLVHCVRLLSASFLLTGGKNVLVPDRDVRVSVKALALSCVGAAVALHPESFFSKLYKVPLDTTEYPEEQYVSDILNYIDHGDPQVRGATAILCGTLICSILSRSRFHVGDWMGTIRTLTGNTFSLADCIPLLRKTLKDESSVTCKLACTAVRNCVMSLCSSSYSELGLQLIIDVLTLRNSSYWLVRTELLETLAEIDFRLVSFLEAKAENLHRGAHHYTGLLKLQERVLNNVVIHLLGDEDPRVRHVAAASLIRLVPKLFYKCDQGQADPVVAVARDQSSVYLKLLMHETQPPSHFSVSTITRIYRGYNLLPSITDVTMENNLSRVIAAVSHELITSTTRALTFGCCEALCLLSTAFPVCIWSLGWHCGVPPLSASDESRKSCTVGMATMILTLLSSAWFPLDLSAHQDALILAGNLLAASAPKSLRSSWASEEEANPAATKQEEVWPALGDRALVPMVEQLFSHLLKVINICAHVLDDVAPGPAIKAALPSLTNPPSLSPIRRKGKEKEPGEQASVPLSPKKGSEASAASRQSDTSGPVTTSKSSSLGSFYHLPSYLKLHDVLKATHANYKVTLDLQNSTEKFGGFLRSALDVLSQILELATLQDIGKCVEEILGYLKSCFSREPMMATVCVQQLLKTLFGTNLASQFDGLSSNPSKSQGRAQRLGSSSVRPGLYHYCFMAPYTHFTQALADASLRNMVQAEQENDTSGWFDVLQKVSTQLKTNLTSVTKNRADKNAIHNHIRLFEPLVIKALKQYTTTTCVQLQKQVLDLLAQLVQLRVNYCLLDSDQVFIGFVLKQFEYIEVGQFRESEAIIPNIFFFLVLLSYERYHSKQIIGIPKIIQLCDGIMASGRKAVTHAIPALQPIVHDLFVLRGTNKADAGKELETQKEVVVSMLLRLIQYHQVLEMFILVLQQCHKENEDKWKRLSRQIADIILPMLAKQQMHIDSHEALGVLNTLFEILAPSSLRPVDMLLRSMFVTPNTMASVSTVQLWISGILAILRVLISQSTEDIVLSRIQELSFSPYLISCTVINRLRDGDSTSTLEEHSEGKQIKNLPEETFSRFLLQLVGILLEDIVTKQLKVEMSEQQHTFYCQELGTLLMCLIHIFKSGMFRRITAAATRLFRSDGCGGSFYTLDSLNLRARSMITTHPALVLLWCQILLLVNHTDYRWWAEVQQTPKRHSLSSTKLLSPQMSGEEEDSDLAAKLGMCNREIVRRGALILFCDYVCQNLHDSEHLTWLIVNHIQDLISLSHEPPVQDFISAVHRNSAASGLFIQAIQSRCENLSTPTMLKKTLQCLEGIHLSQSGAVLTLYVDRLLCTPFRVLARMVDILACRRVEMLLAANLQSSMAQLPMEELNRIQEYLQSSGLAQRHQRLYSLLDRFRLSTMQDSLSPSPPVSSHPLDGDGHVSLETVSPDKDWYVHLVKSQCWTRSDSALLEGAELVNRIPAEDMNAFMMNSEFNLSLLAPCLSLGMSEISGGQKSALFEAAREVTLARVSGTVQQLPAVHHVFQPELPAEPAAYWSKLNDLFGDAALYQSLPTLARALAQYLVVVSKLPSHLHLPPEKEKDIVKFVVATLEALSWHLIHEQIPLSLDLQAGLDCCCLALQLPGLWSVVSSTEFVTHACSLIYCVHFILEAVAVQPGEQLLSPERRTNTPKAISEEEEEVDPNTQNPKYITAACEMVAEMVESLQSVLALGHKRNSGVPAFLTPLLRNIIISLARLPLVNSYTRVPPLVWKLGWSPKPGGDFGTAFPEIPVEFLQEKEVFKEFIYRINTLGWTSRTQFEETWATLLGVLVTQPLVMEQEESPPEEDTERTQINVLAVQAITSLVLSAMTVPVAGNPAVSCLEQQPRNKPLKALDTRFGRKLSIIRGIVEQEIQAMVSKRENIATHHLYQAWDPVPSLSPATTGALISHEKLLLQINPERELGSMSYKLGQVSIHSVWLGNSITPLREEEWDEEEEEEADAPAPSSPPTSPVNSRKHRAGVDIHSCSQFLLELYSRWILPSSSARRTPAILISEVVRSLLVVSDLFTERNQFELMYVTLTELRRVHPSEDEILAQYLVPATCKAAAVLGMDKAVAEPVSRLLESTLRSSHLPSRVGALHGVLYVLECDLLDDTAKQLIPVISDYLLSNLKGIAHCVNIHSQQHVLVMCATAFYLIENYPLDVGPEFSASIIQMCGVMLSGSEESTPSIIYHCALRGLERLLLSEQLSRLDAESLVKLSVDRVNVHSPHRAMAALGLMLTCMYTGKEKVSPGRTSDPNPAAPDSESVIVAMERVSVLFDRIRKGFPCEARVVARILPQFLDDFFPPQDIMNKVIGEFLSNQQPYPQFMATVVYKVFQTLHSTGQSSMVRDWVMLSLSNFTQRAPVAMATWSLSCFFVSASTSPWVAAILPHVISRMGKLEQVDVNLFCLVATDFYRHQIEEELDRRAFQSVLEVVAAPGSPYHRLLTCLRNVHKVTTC
# Experiment: Q46 Radioligand Binding Assay (RBA), displacement of [3H3]MK-3328
# Details: 5 μM Q46 protein aggregates, 10 nM ligand [3H3]MK-3328, 60 minutes at 37° C.
# Experimental: Q46 Radioligand Binding Assay
# For radioligand binding assays (RBA) GST-Q46 protein was generated based on a previous publication (Scherzinger et al. Cell, Vol. 90, 549-558, Aug. 8, 1997). For experiments 33 μM GST-Q46 was incubated with 150 μg/ml thrombin in assay buffer (150 mM NaCl, 50 mM Tris pH 8.0) and 2 mM CaCl2 for 16 hr at 37° C. Aggregated Q46 was pelleted by centrifugation for 5 min at 13,000 rpm in a bench top centrifuge and re-dissolved in the same volume of assay buffer. Test compounds were prepared by titration in DMSO at 11 concentrations from 33 μM to 1 nM. For the RBA, Q46 protein aggregates and test compounds were pre-incubated in assay buffer for 20 min at room temperature, in 140 μL/well in a 96-well plate (pp, round bottom). Then, ligand was added in 10 μL/well and incubated for 60 minutes at 37° C. Final assay concentrations were […] test compound, 5 μM Q46 protein (equivalent monomer concentration) and 10 nM ligand [^3H3]MK-3328 (Harrision et al., ACS Med Chem. Lett., 2 (2011), pp 498-502). Samples were transferred onto GF/B filter plates and washed 2× with 200 μL PBS using a Filtermate Harvester. After drying filter plates for 1 hour at 37° C., the back of the plates was sealed with foil and 30 μL/well scintillation fluid (Packard MicroScint 40) was added, incubated for 15 min in the dark and counted in a TopCount reader. For analysis, replicate data from independent assay plates were normalized towards 0% and 100% inhibition using control wells of vehicle (0% inhibition) and 3 μM unlabelled MK-3328 (100% inhibition). IC50 values were determined with a sigmoidal inhibition model with four variables (top, bottom, slope, IC50) in a global fit using the normalized replicate data.
row,IC50 [nM],Compound
1,< 100,"COc1ccc2c(c1)CN(c1ncccc1C#N)C2 [2-(5-methoxy-2,3-dihydro-1H-isoindol-2-yl)pyridine-3-carbonitrile]"
2,< 100,"N#Cc1cccnc1N1Cc2ccc(OCc3cncnc3)cc2C1 [2-[5-(pyrimidin-5-ylmethoxy)-2,3-dihydro-1H-isoindol-2-yl]pyridine-3-carbonitrile]"
3,< 100,"COc1ccc(COc2ccc3c(c2)CN(c2ncccc2C#N)C3)nc1 [2-{5-[(5-methoxypyridin-2-yl)methoxy]-2,3-dihydro-1H-isoindol-2-yl}pyridine-3-carbonitrile]"
4,< 100,"COc1ccc2c(c1)CN(c1ccncc1C#N)C2 [4-(5-methoxy-2,3-dihydro-1H-isoindol-2-yl)pyridine-3-carbonitrile]"
5,< 100,"COc1ccc2c(c1)CN(c1ncncc1C#N)C2 [4-(5-methoxy-2,3-dihydro-1H-isoindol-2-yl)pyrimidine-5-carbonitrile]"
6,< 100,"N#Cc1cncnc1N1Cc2ccc(OCc3ccccc3)cc2C1 [4-[5-(benzyloxy)-2,3-dihydro-1H-isoindol-2-yl]pyrimidine-5-carbonitrile]"
7,< 100,"N#Cc1cnccc1N1Cc2ccc(OCc3cncnc3)cc2C1 [4-[5-(pyrimidin-5-ylmethoxy)-2,3-dihydro-1H-isoindol-2-yl]pyridine-3-carbonitrile]"
8,< 100,"N#Cc1cnccc1N1Cc2ccc(OCc3ccc(O)cn3)cc2C1 [4-{5-[(5-hydroxypyridin-2-yl)methoxy]-2,3-dihydro-1H-isoindol-2-yl}pyridine-3-carbonitrile]"
9,< 100,"N#Cc1cncnc1N1Cc2ccc(OCc3ccc(O)cn3)cc2C1 [4-{5-[(5-hydroxypyridin-2-yl)methoxy]-2,3-dihydro-1H-isoindol-2-yl}pyrimidine-5-carbonitrile]"
10,< 100,"COc1ccc(COc2ccc3c(c2)CN(c2ccncc2C#N)C3)nc1 [4-{5-[(5-methoxypyridin-2-yl)methoxy]-2,3-dihydro-1H-isoindol-2-yl}pyridine-3-carbonitrile]"
11,< 100,"COc1ccc(COc2ccc3c(c2)CN(c2ncncc2C#N)C3)nc1 [4-{5-[(5-methoxypyridin-2-yl)methoxy]-2,3-dihydro-1H-isoindol-2-yl}pyrimidine-5-carbonitrile]"
12,< 100,"COc1cnc(COc2ccc3c(c2)CN(c2ccncc2)C3)cn1 [5-[(5-methoxypyrazin-2-yl)methoxy]-2-(pyridin-4-yl)-2,3-dihydro-1H-isoindole]"
13,< 100,"COc1ccc(COc2ccc3c(c2)CN(c2ccncc2)C3=O)nc1 [5-[(5-methoxypyridin-2-yl)methoxy]-2-(pyridin-4-yl)-2,3-dihydro-1H-isoindol-1-one]"
14,< 100,"COc1ccc(COc2ccc3c(c2)CN(c2ccc(=O)n(C)n2)C3)nc1 [6-{5-[(5-methoxypyridin-2-yl)methoxy]-2,3-dihydro-1H-isoindol-2-yl}-2-methyl-2,3-dihydropyridazin-3-one]"

# Test system: recombinant tau and amyloid β1-42 (Aβ1-42) aggregates
# Experiment: not given
# Details: higher affinity for the tau aggregates than Aβ1-42 aggregates; cited from earlier work
row,Compound,ratio of Kd values (affinity for tau aggregates versus Aβ1-42 aggregates)
1,"CN(C)c1ccc(/C=C/c2nc3ccc(I)cc3[nH]2)cc1 [SBIM-3, 4-[(E)-2-(6-iodo-1H-benzimidazol-2-yl)ethenyl]-N,N-di methyl aniline]",2.73
